Measured values: the NIST ThermoML archive (doi:10.1021/je034087q)
± gives the expanded uncertainty stated by the source.

Experiment: xn = mol fraction of the nth substance listed
Conditions: 323.15 K, Fluid (supercritical or subcritical phases)

CC(C)=O [acetone] + O=C=O
Conditions	mass density [kg/m3]
8860 kPa, x2 = 0.933	586 ± 4
8880 kPa, x2 = 0.933	590 ± 4
8920 kPa, x2 = 0.902	683 ± 4
8930 kPa, x2 = 0.882	721 ± 5
8930 kPa, x2 = 0.933	594 ± 4
8960 kPa, x2 = 0.576	813 ± 5
8970 kPa, x2 = 0.772	796 ± 5
8980 kPa, x2 = 0.952	495 ± 3
8990 kPa, x2 = 0.933	601 ± 4
9000 kPa, x2 = 0.948	540 ± 3
9000 kPa, x2 = 0.952	497 ± 3
9020 kPa, x2 = 0.902	687 ± 4
9030 kPa, x2 = 0.952	502 ± 3
9040 kPa, x2 = 0.933	606 ± 4
9060 kPa, x2 = 0.948	549 ± 3
9060 kPa, x2 = 0.952	505 ± 3
9090 kPa, x2 = 0.952	510 ± 3
9100 kPa, x2 = 0.933	613 ± 4
9110 kPa, x2 = 0.882	728 ± 5
9120 kPa, x2 = 0.948	559 ± 4
9120 kPa, x2 = 0.952	514 ± 3
9140 kPa, x2 = 0.952	519 ± 3
9160 kPa, x2 = 0.902	690 ± 4
9170 kPa, x2 = 0.952	523 ± 3
9180 kPa, x2 = 0.933	618 ± 4
9190 kPa, x2 = 0.952	527 ± 3
9200 kPa, x2 = 0.948	568 ± 4
9220 kPa, x2 = 0.952	531 ± 3
9240 kPa, x2 = 0.933	624 ± 4
9250 kPa, x2 = 0.952	537 ± 3
9270 kPa, x2 = 0.902	694 ± 4
9290 kPa, x2 = 0.952	541 ± 3
9300 kPa, x2 = 0.948	579 ± 4
9320 kPa, x2 = 0.952	546 ± 3
9330 kPa, x2 = 0.933	630 ± 4
9350 kPa, x2 = 0.811	787 ± 5
9350 kPa, x2 = 0.952	550 ± 3
9380 kPa, x2 = 0.882	732 ± 5
9380 kPa, x2 = 0.952	556 ± 3
9400 kPa, x2 = 0.902	699 ± 4
9410 kPa, x2 = 0.933	637 ± 4
9410 kPa, x2 = 0.948	590 ± 4
9430 kPa, x2 = 0.952	561 ± 4
9450 kPa, x2 = 0.772	798 ± 5
9480 kPa, x2 = 0.952	567 ± 4
9520 kPa, x2 = 0.902	702 ± 4
9520 kPa, x2 = 0.933	642 ± 4
9520 kPa, x2 = 0.952	571 ± 4
9540 kPa, x2 = 0.948	602 ± 4
9560 kPa, x2 = 0.383	803 ± 5
9560 kPa, x2 = 0.952	578 ± 4
9620 kPa, x2 = 0.952	582 ± 4
9630 kPa, x2 = 0.933	649 ± 4
9650 kPa, x2 = 0.882	736 ± 5
9660 kPa, x2 = 0.948	613 ± 4
